By IC50 is commonly meant the concentration at which inhibition is half-maximal. As usually defined, the Ki is the equilibrium dissociation constant of an inhibitor or competing ligand from its target.

Activity calls are given as the source filed them. The calls are words filed in the database; no cut-off is given here.

Series [1] deals with T1, Kallikrein-14 (Homo sapiens, UniProt Q9P0G3).
T1 sequence (Q9P0G3 whole entry): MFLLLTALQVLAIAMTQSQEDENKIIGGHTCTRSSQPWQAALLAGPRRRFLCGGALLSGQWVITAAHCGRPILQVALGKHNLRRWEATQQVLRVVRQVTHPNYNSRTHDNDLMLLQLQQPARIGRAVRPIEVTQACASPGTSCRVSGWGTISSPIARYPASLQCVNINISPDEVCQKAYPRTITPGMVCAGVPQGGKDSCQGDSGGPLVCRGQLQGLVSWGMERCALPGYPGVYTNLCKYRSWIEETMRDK
Briefly: Inhibition of human kallikrein 14 measured after 15 mins at pH 8 by fluorescence assay.

The target of series [2] is T2, Kallikrein-5 (Homo sapiens, UniProt Q9Y337).
T2 sequence (Q9Y337 whole entry): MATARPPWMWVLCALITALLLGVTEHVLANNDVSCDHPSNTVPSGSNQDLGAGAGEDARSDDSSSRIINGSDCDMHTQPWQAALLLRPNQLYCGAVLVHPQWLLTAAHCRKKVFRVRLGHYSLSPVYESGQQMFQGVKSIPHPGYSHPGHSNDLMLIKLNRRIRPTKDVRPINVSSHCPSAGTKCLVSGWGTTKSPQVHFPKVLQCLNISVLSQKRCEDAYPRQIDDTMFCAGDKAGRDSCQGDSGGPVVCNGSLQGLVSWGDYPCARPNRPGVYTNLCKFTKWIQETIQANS
Briefly: Inhibition of human kallikrein 5 measured after 15 mins at pH 8 by fluorescence assay.

Series [3] addresses T3, Kallikrein-7 (Homo sapiens, UniProt P49862). Kind of series: Inhibition of human kallikrein 7 measured after 15 mins at pH 8 by fluorescence assay.
Target sequence in this assay (P49862 whole entry): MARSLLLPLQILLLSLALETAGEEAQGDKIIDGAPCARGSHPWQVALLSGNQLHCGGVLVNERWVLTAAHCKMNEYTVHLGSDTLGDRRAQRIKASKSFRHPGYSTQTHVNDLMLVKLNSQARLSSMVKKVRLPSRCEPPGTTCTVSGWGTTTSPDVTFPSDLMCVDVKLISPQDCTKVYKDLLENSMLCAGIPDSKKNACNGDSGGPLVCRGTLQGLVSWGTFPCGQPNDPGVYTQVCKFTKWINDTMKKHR
Series [4] deals with T4, Suppressor of tumorigenicity 14 protein (Homo sapiens, UniProt Q9Y5Y6).
T4 sequence (Q9Y5Y6 whole entry): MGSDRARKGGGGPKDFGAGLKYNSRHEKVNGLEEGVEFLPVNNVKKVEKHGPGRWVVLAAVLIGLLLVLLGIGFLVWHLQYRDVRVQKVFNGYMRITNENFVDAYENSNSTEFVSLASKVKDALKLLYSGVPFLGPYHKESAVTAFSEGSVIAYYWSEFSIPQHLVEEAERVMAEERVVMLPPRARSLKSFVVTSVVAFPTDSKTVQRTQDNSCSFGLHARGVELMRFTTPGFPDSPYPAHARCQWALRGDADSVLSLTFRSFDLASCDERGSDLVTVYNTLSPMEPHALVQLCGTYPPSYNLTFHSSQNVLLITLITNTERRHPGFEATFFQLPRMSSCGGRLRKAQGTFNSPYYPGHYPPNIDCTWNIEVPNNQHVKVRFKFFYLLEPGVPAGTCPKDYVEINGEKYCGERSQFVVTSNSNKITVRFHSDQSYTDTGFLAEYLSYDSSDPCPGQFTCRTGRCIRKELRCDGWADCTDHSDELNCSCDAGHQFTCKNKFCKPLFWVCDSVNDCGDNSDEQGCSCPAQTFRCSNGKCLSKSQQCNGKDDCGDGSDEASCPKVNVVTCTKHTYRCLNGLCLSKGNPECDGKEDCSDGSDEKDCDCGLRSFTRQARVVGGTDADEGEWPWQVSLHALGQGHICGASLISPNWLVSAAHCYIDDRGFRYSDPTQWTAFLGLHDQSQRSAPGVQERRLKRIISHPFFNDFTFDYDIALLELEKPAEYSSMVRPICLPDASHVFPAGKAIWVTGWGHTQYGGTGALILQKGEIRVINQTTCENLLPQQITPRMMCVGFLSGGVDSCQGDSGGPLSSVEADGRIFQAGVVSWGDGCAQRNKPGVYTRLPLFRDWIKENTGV
Briefly: Inhibition of human matriptase measured after 15 mins at pH 8 by fluorescence assay.

Series [5] concerns the target T3, Kallikrein-7. Kind of series: Binding affinity to human kallikrein 7 assessed as deacylation of enzyme relative to control.
Target sequence in this assay (P49862 30-253 limits assumed): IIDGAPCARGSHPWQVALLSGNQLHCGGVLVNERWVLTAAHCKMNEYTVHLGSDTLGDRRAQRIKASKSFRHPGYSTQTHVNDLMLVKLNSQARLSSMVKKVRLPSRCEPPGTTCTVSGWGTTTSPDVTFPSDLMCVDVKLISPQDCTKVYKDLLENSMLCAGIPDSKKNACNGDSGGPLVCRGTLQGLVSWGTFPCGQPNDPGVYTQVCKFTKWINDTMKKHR
For series [6], the target named is Kallikrein-5 (Homo sapiens) (UniProt Q9Y337). Kind of series: Binding affinity to human kallikrein 5 assessed as deacylation of enzyme relative to control.
Series [7] addresses T3, Kallikrein-7. Briefly: Inhibition of human kallikrein 7 at 0.5 to 8 uM at pH 8 by fluorescence assay. Particulars: TDE = time-dependent effect.
Target sequence in this assay (P49862 30-253 limits assumed): as above
Series [8] concerns the target Kallikrein-5 (Homo sapiens) (UniProt Q9Y337). Briefly: Inhibition of human kallikrein 5 at 0.5 to 8 uM at pH 8 by fluorescence assay. Particulars: TDE = time-dependent effect.
The nature of series [9]: Cytotoxicity against human keratinocytes at 1 to 10 uM after 48 hrs by neutral red uptake assay. The series is classed as cell-based. The settings on record: keratinocyte.
The target of series [10] is T5, Kallikrein-14 (Homo sapiens) (UniProt Q9P0G3).
T5 sequence (whole entry): T1 sequence (Q9P0G3 whole entry)
Briefly: Binding affinity to human kallikrein 14 assessed as half life of deacylated enzyme.

The target of series [11] is T2, Kallikrein-5. Briefly: Inhibition of human kallikrein 5 measured after 15 mins at pH 8 by double-reciprocal plot analysis.
Series [12] addresses T6, Suppressor of tumorigenicity 14 protein (Homo sapiens) (UniProt Q9Y5Y6).
T6 sequence (whole entry): T4 sequence (Q9Y5Y6 whole entry)
Briefly: Binding affinity to human matriptase assessed as half life of deacylated enzyme.

Series [13] concerns the target T3, Kallikrein-7. The settings on record: 296 nM.
Target sequence in this assay (P49862 30-253 limits assumed): as above
Description: Inhibition of human kallikrein 7 at 296 nM to 1 uM at pH 8 by fluorescence assay
For series [14], the target named is Kallikrein-5 (Homo sapiens) (UniProt Q9Y337). Briefly: Inhibition of human kallikrein 5 at 296 nM to 1 uM at pH 8 by fluorescence assay. Particulars: TDE = time-dependent effect.
The target is the same in series [15]. Kind of series: Transient inhibition of human kallikrein 5 assessed as spontaneous reactivation up to 6 hrs.
The target of series [16] is T3, Kallikrein-7. Kind of series: Binding affinity to human kallikrein 7 assessed as half life of deacylated enzyme.
Target sequence in this assay (P49862 30-253 limits assumed): as above

Regarding `Nc1nc(-c2cccnc2)nn1C(=O)c1ccc(Cl)cc1Cl`, the half-maximal inhibitory concentration (IC50) result is “Not Active” in series [1], more than 30 µM in [2] (read-out: IC50), 3.5 µM in series [3] (read-out: IC50) and “Not Active” in [4].

For the compound `COc1ccc(C(=O)n2nc(-c3ccccc3)nc2N)cc1OC`, the fold change (FC) was 0.2 in series [5] and 4 in series [6]. The concentration for half-maximal inhibition (IC50) is more than 30 µM in series [1] (read-out: IC50), 1.3 µM in series [2] (read-out: IC50), 0.23 µM in series [3] (read-out: IC50) and more than 30 µM in series [4] (read-out: IC50). Moreover, the inhibition result in [7] and in series [8] was “tde” in each case.

With `COc1ccc(C(=O)n2cnnc2N)cc1`, the half-inhibitory concentration (IC50) in series [1] (read-out: IC50) was 3.43 µM; in [2] (read-out: IC50) it was 0.99 µM; in series [3] (read-out: IC50), 0.61 µM; in series [4] (read-out: IC50), more than 30 µM. For the same compound, the Activity entry in series [9] is “Non-toxic”. The T1/2 in series [10] is 5 min.

In turn, `Cc1ccc(C(=O)n2nc(-c3cccnc3)nc2N)cc1` came in with an inhibition constant Ki in series [11] of 4.4 µM. Moreover, the concentration for half-maximal inhibition (IC50) is 1.29 µM in series [1] (read-out: IC50), 0.27 µM in [2] (read-out: IC50), 0.04 µM in [3] (read-out: IC50) and 0.57 µM in [4] (read-out: IC50). For the same compound, the T1/2 in [12] and in [10] was 5 min in each case. The inhibition result in series [13] and in series [14] was “tde” in each case. Also, the Activity entry in series [9] is listed as “Non-toxic”. For the same compound, the inhibition result in series [15] was “Active”.

As for `C/C(=C\c1ccccc1)C(=O)n1nnc2ccccc21`, the IC50 entry in series [1], in [2], in [3] and in series [4] was “Not Active” in each case.

`Nc1nc(-c2cccnc2)nn1C(=O)c1ccc(Cl)cc1`: the fold change (FC) was determined as 2 in series [5] and 8 in series [6]. Moreover, the concentration for half-maximal inhibition (IC50) is more than 30 µM in series [1] (read-out: IC50), 1.14 µM in series [2] (read-out: IC50), 0.22 µM in [3] (read-out: IC50) and more than 30 µM in series [4] (read-out: IC50).

Take `CSc1nc(-c2ccc(Cl)cc2)nn1C(=O)c1ccccc1`: the results for the T1/2 in [16], in [12] and in series [10] were 39 min, 5 min and 5 min, respectively. The fold change (FC) in series [5] amounted to 0.2. Moreover, the IC50 in [1] (read-out: IC50) came to 0.97 µM; in series [2] (read-out: IC50), 0.14 µM; in series [3] (read-out: IC50), 0.66 µM; in series [4] (read-out: IC50), 0.42 µM. Also, the Activity result in [9] is “Non-toxic”.

Values taken from ChEMBL document CHEMBL2406906, “1,2,4-Triazole derivatives as transient inactivators of kallikreins involved in skin diseases” (Bioorg Med Chem Lett, 2013).
